Reference: patent publication US10537563B2, “Methods for treating ocular disease using inhibitors of CSF-1R” (NOVARTIS AG, priority 2016, dated 2020)

Tests used:
[1] = molecular target: T1, BAF/Tel-MET-3.1/sACP (Homo sapiens, UniProt P08581); assay: BaF3 proliferation assay; format: cell-based, murine
T1 construct: fused on or other part: P41212 (Transcription factor ETV6)

[2] = molecular target: T2, BAF/Tel-FLT1-Q1/sACP (Homo sapiens, UniProt P17948); assay: BaF3 proliferation assay; format: cell-based, murine
T2 construct: fused on or other part: P41212 (Transcription factor ETV6)

[3] = molecular target: Nek2 (Homo sapiens, UniProt P51955); assay: In vitro kinase assay (Table 1); format: biochemical
[4] = system: human monocytes; assay: Human monocyte survival in culture; format: cell-based; details: concentration dependent effect
Description: (§1) Freshly isolated human PBMCs were used to purify human monocytes by negative selection using an indirect magnetic labeling system. […] Soluble factors such as cytokines (VEGFa, IL-6 etc.) and chemokines (IL-8, MCP-1, MMP9 etc.) in the culture supernatant were measured using commercial ELISA kits. The in vitro survival of human macrophages was measured using a commercially available CellTiter-Glo® system. Most observed results were repeated in multiple donors (n>5).

[5] = molecular target: CamKII alpha (Homo sapiens, UniProt Q9UQM7); assay: In vitro kinase assay (Table 1); format: biochemical
[6] = molecular target: Jak2 (Homo sapiens, UniProt O60674); assay: In vitro kinase assay (Table 1); format: biochemical
[7] = molecular target: Ron (Homo sapiens, UniProt Q04912); assay: In vitro kinase assay (Table 1); format: biochemical
[8] = molecular target: PHKG2 (Homo sapiens, UniProt P15735); assay: In vitro kinase assay (Table 1); format: biochemical
[9] = molecular target: T3, BAF/Tel-JAK3-S1.2/sACP (Homo sapiens, UniProt P52333); assay: BaF3 proliferation assay; format: cell-based, murine
T3 construct: fused on or other part: P41212 (Transcription factor ETV6)

[10] = molecular target: PIK3Cbeta (Homo sapiens, UniProt P42338); assay: In vitro kinase assay (Table 1); format: biochemical
[11] = molecular target: T4, BaF3-Tel-JAK2; clone1 (Homo sapiens, UniProt O60674); assay: BaF3 proliferation assay; format: cell-based, murine
T4 construct: fused on or other part: P41212 (Transcription factor ETV6)

[12] = molecular target: PAK1 (Homo sapiens, UniProt Q13153); assay: In vitro kinase assay (Table 1); format: biochemical
[13] = molecular target: FGFR2 (Homo sapiens, UniProt P21802); assay: In vitro kinase assay (Table 1); format: biochemical
[14] = molecular target: Chk1 (Homo sapiens, UniProt O14757); assay: In vitro kinase assay (Table 1); format: biochemical
[15] = molecular target: p38alpha (Homo sapiens, UniProt Q16539); assay: In vitro kinase assay (Table 1); format: biochemical
[16] = molecular target: T5, BaF-Tel-KDR (Homo sapiens, UniProt P35968); assay: BaF3 proliferation assay; format: cell-based, murine
T5 construct: fused on or other part: P41212 (Transcription factor ETV6)

[17] = system: CD206; assay: CD206 expression in M2a macrophages; format: cell-based, human
Description: as §1

[18] = molecular target: Pim2 (Homo sapiens, UniProt Q9P1W9); assay: In vitro kinase assay (Table 1); format: biochemical
[19] = molecular target: Pim1 (Homo sapiens, UniProt P11309); assay: In vitro kinase assay (Table 1); format: biochemical
[20] = molecular target: Ck1gamma2 (Homo sapiens, UniProt P78368); assay: In vitro kinase assay (Table 1); format: biochemical
[21] = molecular target: T6, BAF/Tel-TRKB-Q2/sACP (Homo sapiens, UniProt Q16620); assay: BaF3 proliferation assay; format: cell-based, murine
T6 construct: fused on or other part: P41212 (Transcription factor ETV6)

[22] = molecular target: T7, Syk (h) (Homo sapiens, UniProt P43405); assay: Kinase profiling at Invitrogen; format: biochemical
T7 construct: purchased Invitrogen

[23] = molecular target: T8, BAF/Tel-InsR-Q.4/sACP (Homo sapiens, UniProt P06213); assay: BaF3 proliferation assay; format: cell-based, murine
T8 construct: fused on or other part: P41212 (Transcription factor ETV6)

[24] = molecular target: T9, BAF/Tel-TRKA-Q.3/sACP (Homo sapiens, UniProt P04629); assay: BaF3 proliferation assay; format: cell-based, murine
T9 construct: fused on or other part: P41212 (Transcription factor ETV6)

[25] = molecular target: T10, BAF/Tel-FGR-2.1/sACP (Homo sapiens, UniProt P09769); assay: BaF3 proliferation assay; format: cell-based, murine
T10 construct: fused on or other part: P41212 (Transcription factor ETV6)

[26] = molecular target: PIK3C_VPS34 (Homo sapiens, UniProt Q8NEB9); assay: In vitro kinase assay (Table 1); format: biochemical
[27] = molecular target: JNK2alpha2 (Homo sapiens, UniProt P45984); assay: In vitro kinase assay (Table 1); format: biochemical
[28] = molecular target: Pim3 (Homo sapiens, UniProt Q86V86); assay: In vitro kinase assay (Table 1); format: biochemical
[29] = molecular target: cRaf (Homo sapiens, UniProt P04049); assay: In vitro kinase assay (Table 1); format: biochemical
[30] = molecular target: Alk (Homo sapiens, UniProt Q9UM73); assay: In vitro kinase assay (Table 1); format: biochemical
[31] = molecular target: T11, BAF/Bcr-Abl-Luc/sACP (Homo sapiens, UniProt P00519); assay: BaF3 proliferation assay; format: cell-based, murine
T11 construct: no part of the key; P11274 (Breakpoint cluster region protein)

[32] = molecular target: PKC_theta (Homo sapiens, UniProt Q04759); assay: In vitro kinase assay (Table 1); format: biochemical
[33] = molecular target: T12, BAF/Tel-TYK2-1.3/sACP (Homo sapiens, UniProt P29597); assay: BaF3 proliferation assay; format: cell-based, murine
T12 construct: fused on or other part: P41212 (Transcription factor ETV6)

[34] = molecular target: TSSK1 (Homo sapiens, UniProt Q9BXA7); assay: In vitro kinase assay (Table 1); format: biochemical
[35] = molecular target: PIK4Cbeta (Homo sapiens, UniProt Q9UBF8); assay: In vitro kinase assay (Table 1); format: biochemical
[36] = system: MMP-9; assay: MMP-9 production by human macrophages (ELISA); format: cell-based; details: low dose (0.1 μM)
Description: as §1

[37] = molecular target: Abl (Homo sapiens, UniProt P00519); assay: In vitro kinase assay (Table 1); format: biochemical

Sequence of Pim1 (P11309 whole entry, species assumed): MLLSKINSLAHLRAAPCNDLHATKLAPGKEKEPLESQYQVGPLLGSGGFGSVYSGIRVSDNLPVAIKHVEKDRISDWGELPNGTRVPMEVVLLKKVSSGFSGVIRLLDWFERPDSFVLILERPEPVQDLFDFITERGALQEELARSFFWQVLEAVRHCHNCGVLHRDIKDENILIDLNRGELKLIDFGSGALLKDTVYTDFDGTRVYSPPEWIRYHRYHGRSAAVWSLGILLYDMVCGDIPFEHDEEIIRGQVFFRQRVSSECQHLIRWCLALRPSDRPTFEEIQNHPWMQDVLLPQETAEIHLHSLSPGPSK
T5 sequence (P35968 834-1162 limits assumed, change not shown): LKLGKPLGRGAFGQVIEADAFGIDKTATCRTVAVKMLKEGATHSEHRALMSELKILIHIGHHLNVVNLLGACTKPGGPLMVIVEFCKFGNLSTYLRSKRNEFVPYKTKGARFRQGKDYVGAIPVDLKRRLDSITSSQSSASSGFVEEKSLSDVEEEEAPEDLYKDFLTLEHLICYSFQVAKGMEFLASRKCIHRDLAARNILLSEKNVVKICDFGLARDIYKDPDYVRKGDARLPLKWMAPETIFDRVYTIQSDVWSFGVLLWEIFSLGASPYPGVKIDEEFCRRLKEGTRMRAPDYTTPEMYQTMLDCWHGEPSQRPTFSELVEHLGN
Sequence of PKC_theta (Q04759 whole entry): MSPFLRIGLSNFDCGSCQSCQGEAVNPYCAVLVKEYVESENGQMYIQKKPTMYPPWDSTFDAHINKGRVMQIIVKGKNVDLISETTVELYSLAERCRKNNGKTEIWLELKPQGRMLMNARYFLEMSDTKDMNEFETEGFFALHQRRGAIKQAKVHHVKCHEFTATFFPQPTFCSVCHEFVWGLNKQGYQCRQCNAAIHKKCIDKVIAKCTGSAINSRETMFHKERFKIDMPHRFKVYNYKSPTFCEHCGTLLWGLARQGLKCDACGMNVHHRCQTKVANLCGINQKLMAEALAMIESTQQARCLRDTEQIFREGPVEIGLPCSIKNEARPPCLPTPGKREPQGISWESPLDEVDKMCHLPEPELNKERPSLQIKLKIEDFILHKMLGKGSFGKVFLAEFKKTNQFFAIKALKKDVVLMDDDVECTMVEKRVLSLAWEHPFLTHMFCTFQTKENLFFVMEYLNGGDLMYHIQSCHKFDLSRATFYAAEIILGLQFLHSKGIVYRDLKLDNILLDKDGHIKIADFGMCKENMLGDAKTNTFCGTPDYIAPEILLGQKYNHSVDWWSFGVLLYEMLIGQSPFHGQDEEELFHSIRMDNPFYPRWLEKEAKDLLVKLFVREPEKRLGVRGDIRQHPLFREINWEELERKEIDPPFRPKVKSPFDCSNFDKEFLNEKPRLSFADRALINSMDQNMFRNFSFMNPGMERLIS
Sequence of CamKII alpha (Q9UQM7 whole entry): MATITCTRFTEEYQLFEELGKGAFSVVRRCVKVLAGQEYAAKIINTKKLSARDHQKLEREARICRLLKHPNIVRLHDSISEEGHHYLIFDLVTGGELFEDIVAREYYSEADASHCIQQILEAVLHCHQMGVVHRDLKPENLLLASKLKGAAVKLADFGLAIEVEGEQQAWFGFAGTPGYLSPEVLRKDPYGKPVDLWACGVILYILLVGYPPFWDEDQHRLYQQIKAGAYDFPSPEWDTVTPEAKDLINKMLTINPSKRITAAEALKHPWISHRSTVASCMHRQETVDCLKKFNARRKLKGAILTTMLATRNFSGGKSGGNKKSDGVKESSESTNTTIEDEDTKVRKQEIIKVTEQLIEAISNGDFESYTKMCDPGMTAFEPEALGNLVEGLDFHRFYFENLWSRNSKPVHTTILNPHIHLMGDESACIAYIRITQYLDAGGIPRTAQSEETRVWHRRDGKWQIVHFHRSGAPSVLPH
Sequence of PHKG2 (P15735 whole entry, species assumed): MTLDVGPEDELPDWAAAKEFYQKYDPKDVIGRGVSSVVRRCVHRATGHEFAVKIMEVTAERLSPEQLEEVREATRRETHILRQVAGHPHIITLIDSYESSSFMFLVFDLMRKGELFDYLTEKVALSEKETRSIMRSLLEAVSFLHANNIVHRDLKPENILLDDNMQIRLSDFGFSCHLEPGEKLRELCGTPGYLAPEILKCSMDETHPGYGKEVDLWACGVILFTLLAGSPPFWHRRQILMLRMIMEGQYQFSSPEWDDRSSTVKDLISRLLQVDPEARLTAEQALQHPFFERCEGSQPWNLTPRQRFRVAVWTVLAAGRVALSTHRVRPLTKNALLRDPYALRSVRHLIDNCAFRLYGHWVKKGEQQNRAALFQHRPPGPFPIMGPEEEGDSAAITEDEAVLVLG
T12 sequence (P29597 897-1176 limits assumed, change not shown): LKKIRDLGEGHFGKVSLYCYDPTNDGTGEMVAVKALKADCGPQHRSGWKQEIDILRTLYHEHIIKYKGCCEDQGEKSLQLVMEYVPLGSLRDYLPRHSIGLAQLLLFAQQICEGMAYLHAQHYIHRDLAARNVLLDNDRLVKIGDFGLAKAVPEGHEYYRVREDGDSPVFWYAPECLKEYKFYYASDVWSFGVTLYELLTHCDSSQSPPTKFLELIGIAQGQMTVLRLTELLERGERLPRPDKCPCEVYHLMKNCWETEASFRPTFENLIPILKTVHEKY
T10 sequence (P09769 263-516 limits assumed, change not shown): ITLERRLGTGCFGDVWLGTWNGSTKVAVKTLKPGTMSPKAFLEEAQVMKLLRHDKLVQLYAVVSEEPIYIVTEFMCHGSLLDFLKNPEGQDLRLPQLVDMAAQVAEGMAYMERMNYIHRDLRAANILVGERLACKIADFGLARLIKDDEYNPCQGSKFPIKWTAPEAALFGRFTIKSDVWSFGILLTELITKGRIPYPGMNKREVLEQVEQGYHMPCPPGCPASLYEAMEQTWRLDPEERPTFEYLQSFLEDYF
Sequence of PIK4Cbeta (Q9UBF8 whole entry): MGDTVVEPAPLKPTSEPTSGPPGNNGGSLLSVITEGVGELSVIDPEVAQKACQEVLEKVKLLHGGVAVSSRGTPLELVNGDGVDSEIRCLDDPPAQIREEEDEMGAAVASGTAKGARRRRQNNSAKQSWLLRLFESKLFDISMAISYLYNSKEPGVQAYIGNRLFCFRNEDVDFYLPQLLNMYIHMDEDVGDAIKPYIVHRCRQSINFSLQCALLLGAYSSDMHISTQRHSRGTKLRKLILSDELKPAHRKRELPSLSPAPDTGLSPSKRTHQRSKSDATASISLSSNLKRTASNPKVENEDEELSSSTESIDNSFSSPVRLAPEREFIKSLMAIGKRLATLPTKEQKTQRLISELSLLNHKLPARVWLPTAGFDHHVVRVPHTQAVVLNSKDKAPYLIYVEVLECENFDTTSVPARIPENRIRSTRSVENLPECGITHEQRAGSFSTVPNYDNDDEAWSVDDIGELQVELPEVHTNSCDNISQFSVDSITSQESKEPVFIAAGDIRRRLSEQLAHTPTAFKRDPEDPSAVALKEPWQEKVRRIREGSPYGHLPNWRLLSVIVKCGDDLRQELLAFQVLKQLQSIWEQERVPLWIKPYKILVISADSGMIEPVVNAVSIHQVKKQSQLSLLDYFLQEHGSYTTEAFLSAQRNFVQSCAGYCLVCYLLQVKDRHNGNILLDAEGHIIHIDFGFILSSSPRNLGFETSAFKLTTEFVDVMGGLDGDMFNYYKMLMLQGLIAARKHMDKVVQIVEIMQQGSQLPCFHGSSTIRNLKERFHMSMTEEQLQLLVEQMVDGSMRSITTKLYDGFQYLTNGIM
Sequence of FGFR2 (P21802 22-821, species assumed): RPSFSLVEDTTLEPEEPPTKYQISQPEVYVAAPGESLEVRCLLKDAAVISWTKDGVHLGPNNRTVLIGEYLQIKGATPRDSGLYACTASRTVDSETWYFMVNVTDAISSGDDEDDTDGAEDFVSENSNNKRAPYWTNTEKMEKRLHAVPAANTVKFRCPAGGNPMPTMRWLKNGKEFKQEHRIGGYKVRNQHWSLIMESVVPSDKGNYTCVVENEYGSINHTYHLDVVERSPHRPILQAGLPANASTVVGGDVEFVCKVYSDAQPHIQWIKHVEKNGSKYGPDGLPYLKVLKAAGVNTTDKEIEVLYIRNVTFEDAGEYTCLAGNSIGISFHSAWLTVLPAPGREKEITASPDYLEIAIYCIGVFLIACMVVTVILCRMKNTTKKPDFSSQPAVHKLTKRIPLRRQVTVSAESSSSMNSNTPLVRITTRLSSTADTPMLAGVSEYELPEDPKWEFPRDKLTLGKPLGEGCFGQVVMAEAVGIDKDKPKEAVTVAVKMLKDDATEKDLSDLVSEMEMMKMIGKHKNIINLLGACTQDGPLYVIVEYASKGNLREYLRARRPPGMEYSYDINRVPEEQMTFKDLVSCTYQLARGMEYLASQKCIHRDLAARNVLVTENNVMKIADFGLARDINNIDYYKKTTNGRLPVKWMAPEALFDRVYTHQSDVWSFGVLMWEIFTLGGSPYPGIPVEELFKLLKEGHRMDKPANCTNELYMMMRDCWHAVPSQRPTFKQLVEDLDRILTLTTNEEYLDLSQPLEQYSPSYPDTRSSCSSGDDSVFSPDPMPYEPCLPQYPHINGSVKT

`CNC(=O)c1cc(Oc2ccc3nc(NC4CCCCC4O)sc3c2)ccn1` (stereo not drawn) [Compound (I)] was tested, and the EC50 [1] was > 10 µM, the EC50 [2] was > 10 µM and the IC50 [3] was > 10 µM. The “concentration at which monocyte survival was significantly affected” value [4] was ≥ 0.6 µM, the IC50 [5] was > 10 µM and the IC50 [6] was > 25 µM. For the same compound, the IC50 [7] was > 10 µM, the IC50 [8] was > 10 µM and the EC50 [9] was > 10 µM. The IC50 [10] was > 25 µM, the EC50 [11] was > 10 µM and the IC50 [12] was > 25 µM. The IC50 [13] was > 10 µM, the IC50 [14] was > 10 µM and the IC50 [15] was > 25 µM. The EC50 [16] was > 10 µM, the “CD206 expression in M2a” value [17] was “dose-dependently decreased” and the IC50 [18] was > 25 µM. For the same compound, the IC50 [19] was > 25 µM, the IC50 [20] was > 10 µM and the EC50 [21] was > 10 µM. It also gave an inhibition at 0.5 µM ([22]; read-out: % inhibition @ 0.5 μM, Syk (h)) of 32%, an inhibition at 5 µM ([22]; read-out: % inhibition @ 5 μM, Syk (h)) of 36% and an inhibition at 20 µM ([22]; read-out: % inhibition @ 20 μM, Syk (h)) of -15%. For the same compound, the EC50 [23] was > 10 µM, the EC50 [24] was > 10 µM and the EC50 [25] was > 10 µM. For the same compound, the IC50 [26] was > 25 µM, the IC50 [27] was > 10 µM and the IC50 [28] was > 25 µM. The IC50 [29] was > 10 µM, the IC50 [30] was > 10 µM and the EC50 [31] was > 10 µM. For the same compound, the IC50 [32] was > 10 µM, the EC50 [33] was > 10 µM and the IC50 [34] was > 10 µM. The IC50 [35] was > 25 µM, the “MMP-9 production by human macrophages” value [36] was “downregulated” and the IC50 [37] was > 10 µM.
